For orientation: EC50 means the concentration at which the effect is half-maximal.

The structures appear in SMILES notation.

These results are taken from patent US6444685B1, “N-(4-sulfonylaryl)Cyclylamine 2-hydroxyethylamines as beta-3 adrenergic receptor agonists” (Wyeth, priority 2000, dated 2002).

Holding throughout (assay type): cell-based
For assay [1], the target named is T1, human β1-adrenergic receptor (Homo sapiens, UniProt P08588).
T1 construct: expressed in transfected cells; host or cells: CHO cells
Kind of assay: cAMP accumulation (SPA) in CHO cells transfected with human β1 adrenergic receptor. As to conditions: for EC50: CHO cells transfected with human β1-AR, cAMP, 15 min incubation, 10^−8 to 10^−4 M, read-out: beta-1 EC50; for beta-1 (IA) maximal response relative to isoproterenol: IA = % activity compound / % activity isoproterenol at 10^−5 M, CHO human β1 cells. How it is done: (§1) The ability of compounds of this invention to treat or inhibit disorders related to insulin resistance or hyperglycemia was established with representative compounds of this invention in the following standard pharmacological test procedures, which measured the binding selectivity to the β1, β2, and β3 adrenergic receptors. Binding to the receptors was measured in Chinese Hamster ovary (CHO) cells that were transfected with adrenergic receptors. The following briefly summarizes the procedures used and results obtained.
(§2) Transfection of CHO cells with β1 and β2 adrenergic receptors: CHO cells were transfected with human β1- or β2-adrenergic receptors as described in Tate, K. M., Eur. J. Biochem., 196:357-361 (1991).
(§3) Binding Procedure: Clones expressing receptor levels of 70 to 110 fmoles/mg protein were used in the test procedures. CHO cells were grown in 24-well tissue culture plates in Dulbecco's Modified Eagle Media with 10% fetal bovine serum, MEM non-essential amino acids, Penicillin-Streptompycin and Geneticin. On the day of test procedure, growth medium was replaced with preincubation media (Dulbecco's Modified Eagle Media and incubated for 30 minutes at 37° C. Preincubation medium was replaced with 0.2 ml treatment medium containing DMEM media containing 250 μM IBMX (isobutyl-1-methylxantine) plus 1 mM ascorbic acid with test compound dissolved in DMSO. Test compounds were tested over a concentration range of 10^−9 M to 10^−5 M for β3 cells and 10^−8 to 10^−4 M for β1 and β2 transfected cells. Isoproterenol (10^−5 M) was used as an internal standard for comparison of activity. Cells were incubated at 37° C. on a rocker for 30 min with the β3 cells and 15 min for β1 and β2 cells. Incubation was stopped with the addition of 0.2N HCl and neutralized with 2.5N NaOH. The plates, containing the cells and neutralized media, were stored at −20 degrees celsius until ready to test for cAMP using the SPA test kit (Amersham).
(§4) Data Analysis and Results: Data collected from the SPA test procedure were analyzed as per cent of the maximal isoproterenol response at 10^−5 M. Activity curves were plotted using the SAS statistical and graphics software. EC50 values were generated for each compound and the maximal response (IA) developed for each compound is compared to the maximal response of isoproternol at 10^−5 M from the following formula:
(§5) IA=% activity compound/% activity isoproterenol
(cAMP levels reflect the balance of adenylyl cyclase and phosphodiesterase activity.)

Assay [2] concerns the target T2, human β2-adrenergic receptor (Homo sapiens, UniProt P07550).
T2 construct: expressed in transfected cells; host or cells: CHO cells
Kind of assay: cAMP accumulation (SPA) in CHO cells transfected with human β2 adrenergic receptor. Particulars: for EC50: CHO cells transfected with human β2-AR, cAMP, 15 min incubation, 10^−8 to 10^−4 M, read-out: beta-2 EC50; for beta-2 (IA) maximal response relative to isoproterenol: IA = % activity compound / % activity isoproterenol at 10^−5 M, CHO human β2 cells. How it is done:
as §1, §2, §3, §4, §5

Assay [3] deals with T3, human β3 adrenergic receptor (Homo sapiens, UniProt P13945).
T3 construct: Full length β3 AR clones (402 amino acids) containing the last 6 amino acids of hβ3— AR are prepared; expressed in transfected cells; host or cells: CHO cells
Nature of the assay: cAMP accumulation (SPA) in CHO cells transfected with human β3 adrenergic receptor. Particulars: for EC50: CHO cells expressing human β3-AR, cAMP, 30 min incubation, 10^−9 M to 10^−5 M, read-out: beta-3 EC50; for beta-3 (IA) maximal response relative to isoproterenol: IA = % activity compound / % activity isoproterenol at 10^−5 M, CHO human β3 cells. How it is done:
as §1
Cloning of Human β3-AR Genomic DNA: cDNA was constructed by ligating four polymerase chain reaction (PCR) products using the following primers: an ATG-Narl fragment, sense primer 5′-[…]3′ and anti-sense primer 5′[…]3′; a Narl-Accl fragment, 5′[…]3′ as sense and 5′[…]3′ as anti-sense primer; an Accli-Styl fragment, sense primer 5′[…]3′ and anti-sense primer 5′[…]3′ and a Styl-TAG fragment, with sense primer 5′[…]3′ and anti-sense primer 5′[…]3′. The corresponding primer sequences are described in Mantzoros, C. S., et.al., Diabetes 45: 909-914 (1996). The four fragments are ligated into a pUC 18 plasmid (Gibco-BRL) and sequenced. Full length β3 AR clones (402 amino acids) containing the last 6 amino acids of hβ3— AR are prepared with the β3-βARpcDNA3from ATTC.
as §3, §4, §5

T3 sequence (P13945 whole entry): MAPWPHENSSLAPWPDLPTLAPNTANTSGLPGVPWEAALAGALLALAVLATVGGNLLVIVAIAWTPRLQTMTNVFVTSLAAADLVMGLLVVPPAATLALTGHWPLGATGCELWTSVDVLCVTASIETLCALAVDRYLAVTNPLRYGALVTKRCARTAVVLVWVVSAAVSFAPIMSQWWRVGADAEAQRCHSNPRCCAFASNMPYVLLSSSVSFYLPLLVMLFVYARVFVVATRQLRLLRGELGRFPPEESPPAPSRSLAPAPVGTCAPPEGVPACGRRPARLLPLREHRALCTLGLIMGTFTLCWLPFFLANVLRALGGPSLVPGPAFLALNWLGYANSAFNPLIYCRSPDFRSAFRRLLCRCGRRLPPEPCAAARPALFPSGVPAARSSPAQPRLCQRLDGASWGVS
T1 sequence (P08588 whole entry): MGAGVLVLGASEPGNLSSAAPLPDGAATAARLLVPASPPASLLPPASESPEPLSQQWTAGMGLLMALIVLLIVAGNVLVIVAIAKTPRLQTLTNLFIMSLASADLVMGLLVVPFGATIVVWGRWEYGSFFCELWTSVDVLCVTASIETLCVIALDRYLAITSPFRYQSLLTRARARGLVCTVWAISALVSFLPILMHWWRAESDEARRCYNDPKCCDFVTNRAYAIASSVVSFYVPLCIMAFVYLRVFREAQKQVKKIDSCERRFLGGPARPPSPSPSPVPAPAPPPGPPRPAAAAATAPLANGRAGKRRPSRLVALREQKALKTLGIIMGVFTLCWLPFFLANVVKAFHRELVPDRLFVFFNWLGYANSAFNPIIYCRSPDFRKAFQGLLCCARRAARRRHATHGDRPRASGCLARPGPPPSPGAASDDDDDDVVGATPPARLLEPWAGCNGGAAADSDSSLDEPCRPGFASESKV
T2 sequence (P07550 whole entry): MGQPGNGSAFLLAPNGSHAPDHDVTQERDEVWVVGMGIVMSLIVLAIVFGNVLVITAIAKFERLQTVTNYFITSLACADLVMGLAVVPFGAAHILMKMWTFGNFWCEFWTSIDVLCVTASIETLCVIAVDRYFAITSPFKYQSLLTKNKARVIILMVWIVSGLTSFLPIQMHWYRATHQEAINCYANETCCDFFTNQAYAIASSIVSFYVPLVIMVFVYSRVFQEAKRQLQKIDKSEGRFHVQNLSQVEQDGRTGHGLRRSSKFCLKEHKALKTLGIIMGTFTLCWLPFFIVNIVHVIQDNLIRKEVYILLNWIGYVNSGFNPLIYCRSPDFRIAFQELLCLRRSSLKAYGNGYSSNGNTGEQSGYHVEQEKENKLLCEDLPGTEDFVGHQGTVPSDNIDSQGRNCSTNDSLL

Consider `CS(=O)(=O)Nc1cc([C@@H](O)CNC2CCN(c3ccc(S(=O)(=O)NCC4CC4)cc3)CC2)ccc1O` [Example 26, N-Cyclopropylmethyl-4-{4-[(2R)-2-hydroxy-2-(4-hydroxy-3-methanesulfonylamino-phenyl)-ethylamino]-piperidin-1-yl}-benzenesulfonamide], for which, in assay [1], the half-maximal effective concentration (EC50) was found to be 240 nM and the “beta-1 (IA) maximal response relative to isoproterenol” value is listed as “(0.41)”. Besides, in assay [2], the concentration for a half-maximal effect (EC50) was determined as 270 nM and the “beta-2 (IA) maximal response relative to isoproterenol” value is “(0.29)”. In assay [3], the EC50 was found to be 23 nM and the “beta-3 (IA) maximal response relative to isoproterenol” value is given as “(0.98)”.

Regarding `CC(C)CNS(=O)(=O)c1ccc(N2CCC(NC[C@H](O)c3ccc(O)c(NS(C)(=O)=O)c3)CC2)cc1` [Example 27, 4-{4-[(2R)-2-Hydroxy-2-(4-hydroxy-3-methanesulfonylamino-phenyl)-ethylamino]-piperidin-1-yl}-N-isobutyl-benzenesulfonamide], in assay [1], the EC50 is 420 nM and the “beta-1 (IA) maximal response relative to isoproterenol” value is “(0.22)”. Also, in assay [2], the EC50 was 540 nM and the “beta-2 (IA) maximal response relative to isoproterenol” value is reported as “(0.29)”. Further, in assay [3], the EC50 amounted to 2 nM and the “beta-3 (IA) maximal response relative to isoproterenol” value was “(1)”.

For the compound `CCOC(=O)CN(CC1CC1)S(=O)(=O)c1ccc(N2CCC(NC[C@H](O)c3ccc(O)c(NS(C)(=O)=O)c3)CC2)cc1` [Example 28, [Cyclopropylmethyl-(4-{4-[(2R)-2-hydroxy-2-(4-hydroxy-3-methanesulfonylamino-phenyl)-ethylamino]-piperidin-1-yl}-benzenesulfonyl)-amino]-acetic Acid Ethyl Ester], the “beta-1 (IA) maximal response relative to isoproterenol” value in assay [1] is recorded as “(0.24)”. Also, in assay [2], the EC50 was 6600 nM and the “beta-2 (IA) maximal response relative to isoproterenol” value is recorded as “(0.85)”. Moreover, in assay [3], the 50% effective concentration (EC50) stood at 2 nM and the “beta-3 (IA) maximal response relative to isoproterenol” value is given as “(0.94)”.

With `CC(C)NS(=O)(=O)c1ccc(N2CCC(NC[C@H](O)c3ccc(O)c(NS(C)(=O)=O)c3)CC2)cc1` [Example 29, 4-{4-[(2R)-2-Hydroxy-2-(4-hydroxy-3-methanesulfonylamino-phenyl)-ethylamino]-piperidin-1-yl}-N-isopropyl-benzenesulfonamide], in assay [1], the concentration giving a half-maximal response (EC50) was 2000 nM and the “beta-1 (IA) maximal response relative to isoproterenol” value is listed as “(0.57)”. Besides, in assay [2], the EC50 was determined as 2900 nM and the “beta-2 (IA) maximal response relative to isoproterenol” value is reported as “(0.48)”. In addition, in assay [3], the EC50 turned out to be 7 nM and the “beta-3 (IA) maximal response relative to isoproterenol” value is “(1.3)”.

On to `CCOC(=O)[C@H]1CCCN1S(=O)(=O)c1ccc(N2CCC(NC[C@H](O)c3ccc(O)c(NS(C)(=O)=O)c3)CC2)cc1` [Example 30, 1-(4-{4-[(2R)-2-Hydroxy-2-(4-hydroxy-3-methanesulfonylamino-phenyl)-ethylamino]-piperidin-1-yl}-benzenesulfonyl)-pyrrolidine-(2R)-2-carboxylic Acid Ethyl Ester], for which, in assay [1], the concentration giving a half-maximal response (EC50) amounted to 9800 nM and the “beta-1 (IA) maximal response relative to isoproterenol” value is “(1.1)”. For the same compound, in assay [2], the half-maximal effective concentration (EC50) is 3600 nM and the “beta-2 (IA) maximal response relative to isoproterenol” value was “(0.36)”. Also, in assay [3], the 50% effective concentration (EC50) was 4 nM and the “beta-3 (IA) maximal response relative to isoproterenol” value is reported as “(1.2)”.

For `CS(=O)(=O)Nc1cc([C@@H](O)CNC2CCN(c3ccc(S(=O)(=O)N(CC(=O)O)CC4CC4)cc3)CC2)ccc1O` [Example 31, [Cyclopropylmethyl-(4-{4-[(2R)-2-hydroxy-2-(4-hydroxy-3-methanesulfonylamino-phenyl)-ethylamino]-piperidin-1-yl}-benzenesulfonyl)-amino]-acetic Acid], in assay [1], the half-maximal effective concentration (EC50) was determined as 20000 nM and the “beta-1 (IA) maximal response relative to isoproterenol” value is “(0.96)”. In assay [2], the half-maximal effective concentration (EC50) worked out at 12000 nM and the “beta-2 (IA) maximal response relative to isoproterenol” value is reported as “(0.33)”. In assay [3], the concentration giving a half-maximal response (EC50) is 7 nM and the “beta-3 (IA) maximal response relative to isoproterenol” value is recorded as “(1.2)”.

For `CCOC(=O)CN(CC(C)C)S(=O)(=O)c1ccc(N2CCC(NC[C@H](O)c3ccc(O)c(NS(C)(=O)=O)c3)CC2)cc1` [Example 32, [(4-{4-[(2R)-2-Hydroxy-2-(4-hydroxy-3-methanesulfonylamino-phenyl)-ethylamino]-piperidin-1-yl}-benzenesulfonyl)-isobutyl-amino]-acetic Acid Ethyl Ester], in assay [1], the EC50 was found to be 6700 nM and the “beta-1 (IA) maximal response relative to isoproterenol” value was “(0.48)”. Further, in assay [2], the EC50 came out at 10000 nM and the “beta-2 (IA) maximal response relative to isoproterenol” value is listed as “(0.57)”. In assay [3], the EC50 came out at 4 nM and the “beta-3 (IA) maximal response relative to isoproterenol” value was “(1)”.

For `CN(CC(=O)O)S(=O)(=O)c1ccc(N2CCC(NC[C@H](O)c3ccc(O)c(NS(C)(=O)=O)c3)CC2)cc1` [Example 33, [(4-{4-[(2R)-2-Hydroxy-2-(4-hydroxy-3-methanesulfonylamino-phenyl)-ethylamino]-piperidin-1-yl}-benzenesulfonyl)-methyl-amino]-acetic Acid], in assay [1], the EC50 was determined as 25000 nM and the “beta-1 (IA) maximal response relative to isoproterenol” value is “(0.66)”. For the same compound, the “beta-2 (IA) maximal response relative to isoproterenol” value in assay [2] is listed as “(0.15)”. In assay [3], the EC50 worked out at 18 nM and the “beta-3 (IA) maximal response relative to isoproterenol” value is recorded as “(1)”.

Consider `CC(C)CN(CC(=O)O)S(=O)(=O)c1ccc(N2CCC(NC[C@H](O)c3ccc(O)c(NS(C)(=O)=O)c3)CC2)cc1` [Example 34, [(4-{4-[(2R)-2-Hydroxy-2-(4-hydroxy-3-methanesulfonylamino-phenyl)-ethylamino]-piperidin-1-yl}-benzenesulfonyl)-isobutyl-amino]-acetic Acid], for which, in assay [1], the EC50 stood at 10000 nM and the “beta-1 (IA) maximal response relative to isoproterenol” value is “(0.49)”. Moreover, the “beta-2 (IA) maximal response relative to isoproterenol” value in assay [2] was “(0.14)”. Besides, in assay [3], the EC50 worked out at 6 nM and the “beta-3 (IA) maximal response relative to isoproterenol” value is on record as “(1.1)”.

With `CS(=O)(=O)Nc1cc([C@@H](O)CNC2CCN(c3ccc(S(=O)(=O)N4CCC[C@@H]4C(=O)O)cc3)CC2)ccc1O` [Example 35, 1-(4-{4-[(2R)-2-Hydroxy-2-(4-hydroxy-3-methanesulfonylamino-phenyl)-ethylamino]-piperidin-1-yl}-benzenesulfonyl)-pyrrolidine-(2R)-2-carboxylic Acid], in assay [1], the EC50 is 49000 nM and the “beta-1 (IA) maximal response relative to isoproterenol” value is reported as “(0.66)”. The “beta-2 (IA) maximal response relative to isoproterenol” value in assay [2] is recorded as “(0.04)”. Also, in assay [3], the EC50 was 11 nM and the “beta-3 (IA) maximal response relative to isoproterenol” value is on record as “(1.1)”.

As for `CCOC(=O)[C@@H]1CCCN1S(=O)(=O)c1ccc(N2CCC(NC[C@H](O)c3ccc(O)c(NS(C)(=O)=O)c3)CC2)cc1` [Example 36, Ethyl (2S)-1-[(4-{4-[((2R)-2-Hydroxy-2-{4-hydroxy-3-[(methylsulfonyl)amino]phenyl}ethyl)amino]-1-piperidinyl}phenyl)sulfonyl]-2-pyrrolidinecarboxylate], in assay [1], the EC50 worked out at 4800 nM and the “beta-1 (IA) maximal response relative to isoproterenol” value is “(0.85)”. In assay [2], the concentration for a half-maximal effect (EC50) came out at 720 nM and the “beta-2 (IA) maximal response relative to isoproterenol” value is “(0.19)”. In addition, in assay [3], the EC50 was 9 nM and the “beta-3 (IA) maximal response relative to isoproterenol” value is recorded as “(1)”.
